Results on four molecules are retold here after patent US8247557B2, “IAP inhibitors” (Genentech, Inc., priority 2005, dated 2012).

The target in this assay is T1, MLXBIR3SG (Homo sapiens, UniProt Q96CA5, S150G).
T1 construct: His6 tag (MGSSHHHHHH, followed by linker with LVPRGS thrombin site) (N)
T1 sequence (Q96CA5 with tags, fused parts or gaps S150G): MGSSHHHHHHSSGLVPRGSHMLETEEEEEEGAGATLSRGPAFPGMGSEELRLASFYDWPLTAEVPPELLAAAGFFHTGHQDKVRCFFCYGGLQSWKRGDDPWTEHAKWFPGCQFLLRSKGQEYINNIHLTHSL
The assay is described as follows: Fluorescence Polarization Peptide Binding Assay (competition with AVP-diPhe-FAM probe). The following applies: MLXBIR3SG at 30 nM, 5 nM AVP-diPhe-FAM probe, Ki determined from IC50 values, unit inferred. The procedure:
In the following experiments was used a chimeric BIR domain referred to as MLXBIR3SG in which 11 of 110 residues correspond to those found in XIAP-BIR3, while the remainder correspond to ML-IAP-BIR. […] The improved caspase-9 inhibition of the chimeric BIR domain MLXBIR3SG has been correlated with increased inhibition of doxorubicin-induced apoptosis when transfected into MCF7 cells.
Polarization experiments were performed on an Analyst HT 96-384 (Molecular Devices Corp.) according to the procedure of Keating, S. M., Marsters, J, Beresini, M., Ladner, C., Zioncheck, K., Clark, K., Arellano, F., and Bodary., S. (2000) in Proceedings of SPIE: In Vitro Diagnostic Instrumentation (Cohn, G. E., Ed.) pp 128-137, Bellingham, Wash. Samples for fluorescence polarization affinity measurements were prepared by addition of 1:2 serial dilutions starting at a final concentration of 5 μM of MLXBIR3SG in polarization buffer (50 mM Tris [pH 7.2], 120 mM NaCl, 1% bovine globulins 5 mM DTT and 0.05% octylglucoside) to 5-carboxyflourescein-conjugated AVPdi-Phe-NH2 (AVP-diPhe-FAM) at 5 nM final concentration.
The reactions were read after an incubation time of 10 minutes at room temperature with standard cut-off filters for the fluorescein fluorophore (λex=485 nm; λem=530 nm) in 96-well black HE96 plates (Molecular Devices Corp.). Fluorescence values were plotted as a function of the protein concentration, and the IC50s were obtained by fitting the data to a 4-parameter equation using Kaleidograph software (Synergy software, Reading, Pa.). Competition experiments were performed by addition of the MLXBIR3SG at 30 nM to wells containing 5 nM of the AVP-diPhe-FAM probe as well as 1:3 serial dilutions of antagonist compounds starting at a concentration of 300 μM in the polarization buffer. Samples were read after a 10-minute incubation. Fluorescence polarization values were plotted as a function of the antagonist concentration, and the IC50 values were obtained by fitting the data to a 4-parameter equation using Kaleidograph software (Synergy software, Reading, Pa.). Inhibition constants (Ki) for the antagonists were determined from the IC50 values.

For the molecule `C[C@H](NCCO)C(=O)N[C@H](C(=O)N1CCC[C@H]1c1nc2c(-c3ccccc3)ccnc2s1)C1CCCCC1` [compound 60], the Ki (usually the dissociation constant of the complex between target and ligand, obtained from inhibition or displacement) is 145 nM.
For `C[C@H](NCCO)C(=O)N[C@H](C(=O)N1CCC[C@H]1c1nc2c(-c3ccccc3)nccc2s1)c1ccccc1` [compound 54], the Ki worked out at 55.6 nM.
As for `C[C@@H](NCCO)C(=O)N[C@H](C(=O)N1CCC[C@H]1c1nc2c(-c3ccccc3)nccc2s1)C1CCCCC1` [compound 48], the Ki was found to be 7870 nM.
On to `CN[C@@H](C)C(=O)N[C@H](C(=O)N1CCC[C@H]1c1nc2c(-c3ccccc3)ncnc2s1)C1CCN(C(=O)COC)CC1` [compound 56], for which the Ki worked out at 33.8 nM.
